Experimental data reported in patent publication EP0282292B1, “Improved chelator for anaerobic sealants” (LOCTITE (IRELAND) Ltd., priority 1987, dated 1988).
Read-outs that look alike come from different tables or passages of the source.

How the values were obtained:
[1] = anaerobic sealant formulation with acidic components
[2] = Stability at 82°C (time to first gellation) of curable formulation spiked with copper; conditions: for level of chelator able to counteract added copper: 0.5 ppm of added copper; for stability (time to first gellation): 82°C, spiked with copper after one week at room temperature, supernatant only

SMILES | time to precipitation from solution after addition [1] [h] | level of chelator able to counteract added copper [2] [ppm] | stability (time to first gellation) [2] | chelator concentration, Sampled after 0.5hr. standing-supernatant liquid taken (1% Maleic Acid in PEGMA) [ppm] | chelator concentration, Stirred 0.5hr. mixture sampled (1% Maleic Acid in PEGMA) [ppm] | chelator concentration, supernatant after 4 days standing (1% Maleic Acid in PEGMA) [ppm] | chelator concentration, supernatant after 5 days standing (1% Maleic Acid in PEGMA) [ppm] | chelator concentration, Sampled after 0.5hr. standing-supernatant liquid taken (3% Saccharin in PEGMA) [ppm] | chelator concentration, Stirred 0.5hr. mixture sampled (3% Saccharin in PEGMA) [ppm] | chelator concentration, supernatant after 4 days standing (3% Saccharin in PEGMA) [ppm] | chelator concentration, supernatant after 5 days standing (3% Saccharin in PEGMA) [ppm]
O=C([O-])CN(CCN(CC(=O)[O-])CC(=O)[O-])CC(=O)[O-].[Na+].[Na+].[Na+].[Na+] [EDTA Na₄, ethylenediaminetetraacetic acid tetrasodium salt] | ≤ 24 | – | – | – | – | – | – | – | – | – | –
CC(O)CN(CCN(CC(C)O)CC(C)O)CC(C)O (stereo not shown) [EDTPA, tetrakis-(2-hydroxy-propyl)-ethylenediamine] | – | 300 | no loss of chelation efficiency on aging | – | – | – | – | – | – | – | –
O=C([O-])CN(CCO)CCN(CC(=O)[O-])CC(=O)[O-].[Na+].[Na+].[Na+] [HEDTA Na₃, N-hydroxyethylenediaminetriacetic acid trisodium salt] | – | 300 | no loss of chelation efficiency on aging | 110 | 826 | 175 | 180 | 65 | 904 | 69 | 75
